Test system: A431
Assay: Cell anti-proliferation experiment (CTG)
Assay type: cell-based
Details: Homo sapiens, A-431, 72 h, A431 (wild-type EGFR), class symbol
Description: (§1) H1975 has an EGFR: T790M/L858R double mutation, PC-9 has an EGFR exon 19 deletion, and HCC827 has an exon 19 deletion mutation. Baf3-19del- T790M -C797S (Baf3-DTC) is a stable Ba/F3 clone expressing exogenous EGFR gene bearing T790M, C797S, and […] triple amino acid mutations, purchased from KYinno. Baf3-L858R-T790M - C797S (Baf3-LTC) is a stable Ba/F3 clone expressing exogenous EGFR gene bearing […], T790M, and C797S triple mutations, purchased from KYinno. A549 is a wild-type EGFR, purchased from Nanjing Kebai Biotechnology. A431 is a wild-type EGFR, purchased from Shanghai Xinyu Biotechnology. CellCounting-Lite2.0, Trypsin EDTA, 37°C CO2 incubator, cell counter, EnVision Serial No. 1050454.
(§2) • A) Digested logarithmic phase cells with Trypsin EDTA, added culture medium to stop the reaction, and mixing well with a pipette to prepare a cell suspension. • B) Used Vi-cell to determine cell concentration, and prepared a suspension of 15,000-25,000 cells per milliliter according to the experimental purpose and cell characteristics. • C) After prepared the cell suspension, mixed it gently and added 100 µL to each well, so that the cell density to be tested is 1500-2500 per well.
(§3) • A) Weighed approximately 2 mg the compound and calculated the required volume of DMSO according to the formula: Compound mass (mg) * Compound purity (%) / Compound molecular weight * 1000. • B) Placed the inoculated cell culture plate into an incubator and incubated for about 24 hours. Then added compounds of varying concentrations. • C) Diluted the 10mM compound stock solution to […] with culture medium, and added the […] compound solution to the second column of the deep well plate in sequence, and added […] culture medium containing 0.5% DMSO to the third to eleventh columns. • D) Gradient dilution: Taked 125 µL solution from the second column and added it to the third column, mix well; then taked 125 µL solution from the third column and added it to the fourth column, repeated this operation until the tenth column. • E) Used a multichannel pipette, aspirated 25 µL the compound from the deep-well plate and added it to a 96-well culture plate. Repeated this process three times for each compound on the 96-well plate. This will ultimately create a concentration gradient of up to 10,000 nM at a 1:4 ratio on the 96-well plate.
(§4) • A) The effects of the compound were observed under an inverted microscope after the 96-well plate was incubated in an incubator for 72 hours. • B) Added 25 µL CTG solution to each well, placed on a shaker for 10 minutes, and read the […] of each well.
(§5) Calculate the % Cell Viability using the following formula: %Cell Viability = 100% × (Lum_Sample−Lum_LC)/(Lum_HC−Lum_LC) [formula] • Lum_HC: Cell readings from the 0.1% DMSO control group • Lum_Sample: Cell readings with added compound • Lum_LC: Blank culture medium reading
(§6) The IC50 value was obtained by curve fitting using GraphPad Prism 8 software.

Structure (SMILES) | IC50 [nM]
CCc1cc(Nc2ncc(Br)c(Nc3ccccc3P(C)(C)=O)n2)c(OC)cc1N1CCN(C(=O)CN2CCC(c3cc4c(cc3F)c(N3CCC(=O)NC3=O)nn4-c3ccccc3)C(F)(F)C2)CC1 (stereo not shown) [TC-150] | > 1000
COc1cc(N2CCN(C(=O)CN3CCC(c4cc5c(cc4F)c(N4CCC(=O)NC4=O)nn5C)C(F)(F)C3)CC2)ccc1Nc1ncc(Cl)c(Nc2ccccc2P(C)(C)=O)n1 (stereo not shown) [TC-211] | > 1000

Test system: A549
Assay: Cell anti-proliferation experiment (CTG)
Assay type: cell-based
Details: Homo sapiens, A549, 72 h, A549 (wild-type EGFR), class symbol
Description: as §1, §2, §3, §4, §5, §6

Structure (SMILES) | IC50 [nM]
COc1cc(N2CCN(C(=O)CN3CCC(c4ccc5c(N6CCC(=O)NC6=O)nn(C)c5c4)CC3)CC2)ccc1Nc1ncc(Cl)c(Nc2ccccc2)n1 [DZL-2, reference compound] | 100 to 1000
CCc1cc(Nc2ncc(Br)c(Nc3ccccc3P(C)(C)=O)n2)c(OC)cc1N1CCN(C(=O)CN2CCC(c3cc4c(cc3F)c(N3CCC(=O)NC3=O)nn4-c3ccccc3)C(F)(F)C2)CC1 (stereo not shown) [TC-150] | > 1000
COc1cc(N2CCN(C(=O)CN3CCC(c4cc5c(cc4F)c(N4CCC(=O)NC4=O)nn5C)C(F)(F)C3)CC2)ccc1Nc1ncc(Cl)c(Nc2ccccc2P(C)(C)=O)n1 (stereo not shown) [TC-211] | > 1000

Same assay, conditions: Homo sapiens, A549, 72 h, A549 (wild-type EGFR), number after the class symbol

Structure (SMILES) | IC50 [nM]
COc1cc(N2CCN(C(=O)CN3CCC(c4ccc5c(N6CCC(=O)NC6=O)nn(C)c5c4)CC3)CC2)ccc1Nc1ncc(Cl)c(Nc2ccccc2)n1 [DZL-2, reference compound] | 289

Test system: Baf3-19del- T790M -C797S (Baf3-DTC)
Assay: Cell anti-proliferation experiment (CTG)
Assay type: cell-based
Details: 72 h, class symbol
Description: as §1, §2, §3, §4, §5, §6

Structure (SMILES) | IC50 [nM]
CCc1cc(Nc2ncc(Br)c(Nc3ccccc3P(C)(C)=O)n2)c(OC)cc1N1CCN(C(=O)CN2CCC(c3cc4c(cc3F)c(N3CCC(=O)NC3=O)nn4-c3ccccc3)C(F)(F)C2)CC1 (stereo not shown) [TC-150] | 10 to 100
COc1cc(N2CCN(C(=O)CN3CCC(c4cc5c(cc4F)c(N4CCC(=O)NC4=O)nn5C)C(F)(F)C3)CC2)ccc1Nc1ncc(Cl)c(Nc2ccccc2P(C)(C)=O)n1 (stereo not shown) [TC-211] | 10 to 100

Test system: Baf3-L858R-T790M - C797S (Baf3-LTC)
Assay: Cell anti-proliferation experiment (CTG)
Assay type: cell-based
Details: 72 h, class symbol
Description: as §1, §2, §3, §4, §5, §6

Structure (SMILES) | IC50 [nM]
CCc1cc(Nc2ncc(Br)c(Nc3ccccc3P(C)(C)=O)n2)c(OC)cc1N1CCN(C(=O)CN2CCC(c3cc4c(cc3F)c(N3CCC(=O)NC3=O)nn4-c3ccccc3)C(F)(F)C2)CC1 (stereo not shown) [TC-150] | 10 to 100
COc1cc(N2CCN(C(=O)CN3CCC(c4cc5c(cc4F)c(N4CCC(=O)NC4=O)nn5C)C(F)(F)C3)CC2)ccc1Nc1ncc(Cl)c(Nc2ccccc2P(C)(C)=O)n1 (stereo not shown) [TC-211] | 10 to 100

Test system: H1975
Assay: Cell anti-proliferation experiment (CTG)
Assay type: cell-based
Details: Homo sapiens, NCI-H1975, 72 h, H1975 (EGFR T790M/L858R), class symbol
Description: as §1, §2, §3, §4, §5, §6

Structure (SMILES) | IC50 [nM]
COc1cc(N2CCN(C(=O)CN3CCC(c4ccc5c(N6CCC(=O)NC6=O)nn(C)c5c4)CC3)CC2)ccc1Nc1ncc(Cl)c(Nc2ccccc2)n1 [DZL-2, reference compound] | 100 to 1000
CCc1cc(Nc2ncc(Br)c(Nc3ccccc3P(C)(C)=O)n2)c(OC)cc1N1CCN(C(=O)CN2CCC(c3cc4c(cc3F)c(N3CCC(=O)NC3=O)nn4-c3ccccc3)C(F)(F)C2)CC1 (stereo not shown) [TC-150] | 100 to 1000
COc1cc(N2CCN(C(=O)CN3CCC(c4cc5c(cc4F)c(N4CCC(=O)NC4=O)nn5C)C(F)(F)C3)CC2)ccc1Nc1ncc(Cl)c(Nc2ccccc2P(C)(C)=O)n1 (stereo not shown) [TC-211] | 100 to 1000

Same assay, conditions: Homo sapiens, NCI-H1975, 72 h, H1975 (EGFR T790M/L858R), number after the class symbol

Structure (SMILES) | IC50 [nM]
COc1cc(N2CCN(C(=O)CN3CCC(c4ccc5c(N6CCC(=O)NC6=O)nn(C)c5c4)CC3)CC2)ccc1Nc1ncc(Cl)c(Nc2ccccc2)n1 [DZL-2, reference compound] | 220

Test system: HCC827
Assay: Cell anti-proliferation experiment (CTG)
Assay type: cell-based
Details: Homo sapiens, HCC827, 72 h, HCC827 (exon 19 deletion), class symbol
Description: as §1, §2, §3, §4, §5, §6

Structure (SMILES) | IC50 [nM]
COc1cc(N2CCN(C(=O)CN3CCC(c4ccc5c(N6CCC(=O)NC6=O)nn(C)c5c4)CC3)CC2)ccc1Nc1ncc(Cl)c(Nc2ccccc2)n1 [DZL-2, reference compound] | 100 to 1000
CCc1cc(Nc2ncc(Br)c(Nc3ccccc3P(C)(C)=O)n2)c(OC)cc1N1CCN(C(=O)CN2CCC(c3cc4c(cc3F)c(N3CCC(=O)NC3=O)nn4-c3ccccc3)C(F)(F)C2)CC1 (stereo not shown) [TC-150] | 100 to 1000
COc1cc(N2CCN(C(=O)CN3CCC(c4cc5c(cc4F)c(N4CCC(=O)NC4=O)nn5C)C(F)(F)C3)CC2)ccc1Nc1ncc(Cl)c(Nc2ccccc2P(C)(C)=O)n1 (stereo not shown) [TC-211] | 100 to 1000

Same assay, conditions: Homo sapiens, HCC827, 72 h, HCC827 (exon 19 deletion), number after the class symbol

Structure (SMILES) | IC50 [nM]
COc1cc(N2CCN(C(=O)CN3CCC(c4ccc5c(N6CCC(=O)NC6=O)nn(C)c5c4)CC3)CC2)ccc1Nc1ncc(Cl)c(Nc2ccccc2)n1 [DZL-2, reference compound] | 265

Test system: PC-9
Assay: Cell anti-proliferation experiment (CTG)
Assay type: cell-based
Details: Homo sapiens, PC-9, 72 h, PC-9 (EGFR exon 19 deletion), class symbol
Description: as §1, §2, §3, §4, §5, §6

Structure (SMILES) | IC50 [nM]
COc1cc(N2CCN(C(=O)CN3CCC(c4ccc5c(N6CCC(=O)NC6=O)nn(C)c5c4)CC3)CC2)ccc1Nc1ncc(Cl)c(Nc2ccccc2)n1 [DZL-2, reference compound] | 100 to 1000
CCc1cc(Nc2ncc(Br)c(Nc3ccccc3P(C)(C)=O)n2)c(OC)cc1N1CCN(C(=O)CN2CCC(c3cc4c(cc3F)c(N3CCC(=O)NC3=O)nn4-c3ccccc3)C(F)(F)C2)CC1 (stereo not shown) [TC-150] | > 1000
COc1cc(N2CCN(C(=O)CN3CCC(c4cc5c(cc4F)c(N4CCC(=O)NC4=O)nn5C)C(F)(F)C3)CC2)ccc1Nc1ncc(Cl)c(Nc2ccccc2P(C)(C)=O)n1 (stereo not shown) [TC-211] | 100 to 1000

Same assay, conditions: Homo sapiens, PC-9, 72 h, PC-9 (EGFR exon 19 deletion), number after the class symbol

Structure (SMILES) | IC50 [nM]
COc1cc(N2CCN(C(=O)CN3CCC(c4ccc5c(N6CCC(=O)NC6=O)nn(C)c5c4)CC3)CC2)ccc1Nc1ncc(Cl)c(Nc2ccccc2)n1 [DZL-2, reference compound] | 612

Test system: not listed separately
Assay: Pharmacokinetic tests in male SD rats
Assay type: in vivo
Details: oral gavage (po), 10 mg/kg, plasma
Experimental: Three healthy adult male SD rats, 6-8 weeks old, weighing 200-300 grams.
EDTA-Na2 anticoagulant, weighed 11.2 g EDTA-Na2 and placed it in a reagent bottle. Added 100 mL physiological saline and shaked to dissolve completely. After preparation, dispensed into 1.5 mL centrifuge tubes, each containing approximately 20 µL, for whole blood sample collection.
Accurately weighed approximately 10 mg the sample to be tested, added 10% of the converted total volume of DMSO to dissolve it, and then slowly added 90% of the total volume of 0.5% MC solvent while stirring. Sonicated and vortex to mix thoroughly to obtain a solution of the preparation that is considered to be homogeneous, with a concentration of 1 mg/mL. Prepared fresh immediately before use.
Piped 0.2 mL the sample into a 1.5 mL centrifuge tube and store at -80°C for analysis of the concentration of the drug solution.
Animals were housed in rat cages and fasted for at least 10 hours starting the day before the experiment, but water was allowed. On the day of the experiment, each animal was weighed and marked on its tail. Blank blood samples were collected before drug administration. Blood was collected via tail vein.
• Route of administration: Oral gavage (po); • Dosage concentration: 1 mg/ml; • Dosage: 10 mg/kg; • Dosage volume: 10 mL/kg; • Procedure: Hold the rat upright with your left hand wearing a bite-proof glove, insert the gavage needle into the throat through the mouth, and insert the needle when feeling no obvious resistance. Then inject the drug into the stomach.
Whole blood (0.1-0.2 ml) was collected from test animals at 0.5 h, 1 h, 2 h, 4 h, 6 h, 8 h, 12 h, and 24 h after drug administration. The samples were placed in EDTA-Na 2 anticoagulant tubes, inverted 3-4 times to mix, and centrifuged at 4°C, 2000 g for 5 min to separate the supernatant plasma. The plasma was promptly transferred to -80°C for storage until analysis. Blood was collected via tail vein.
A quantitative detection method for the analyte was established using Shimadzu liquid chromatography and Triple Quad™ 6500+AB mass spectrometry. The concentration of the parent drug in plasma was analyzed. The analytical results were controlled for variation using quality control samples, with the accuracy of the quality control samples expected to be between 80% and 120%.
The main pharmacokinetic parameters were calculated using a non-compartmental model in Winnonlin Phoenix software. These parameters included the area under the curve (AUC(0-t) and AUC(0-∞)), elimination half-life (T1/2), maximum plasma concentration (Cmax ), and time to reach maximum plasma concentration (Tmax).The results are shown in Table 3.

Structure (SMILES) | HL [h]
CCc1cc(Nc2ncc(Cl)c(Nc3ccccc3P(C)(C)=O)n2)c(OC)cc1N1CCN(CCN2CCC(c3cc4c(cc3F)c(N3CCC(=O)NC3=O)nn4C)C(F)(F)C2)CC1 (stereo not shown) [TC-099] | 7.86

Same assay, conditions: rat, oral gavage (po), 10 mg/kg, plasma

Structure (SMILES) | AUC(0-inf) [ng·h/mL] | AUC(0-t) [ng·h/mL] | Cmax [ng/mL] | MRT last [h] | Tmax [h]
CCc1cc(Nc2ncc(Cl)c(Nc3ccccc3P(C)(C)=O)n2)c(OC)cc1N1CCN(CCN2CCC(c3cc4c(cc3F)c(N3CCC(=O)NC3=O)nn4C)C(F)(F)C2)CC1 (stereo not shown) [TC-099] | 9130 | 7840 | 649 | 7.79 | 2.67
